Source: patent US20210282401A1, “FUNGICIDAL COMPOUNDS AND MIXTURES FOR FUNGAL CONTROL IN CEREALS” (Dow AgroSciences LLC, priority 2016, published 2021)

Key:
Format in all cases: in vivo
[1] = test system: Puccinia recondita (PUCCRT); experiment: Field assessment of brown rust of wheat (PUCCRT), relative AUDPC, 2 field trials; settings: based on AUDPC
Description: (§1) Treatments consisting of the compound of Formula I and the fungicide picoxystrobin were applied either using individually or as a two-way mixture with the compound of Formula I. The compound of Formula I was applied with Agnique BP-420 (50% w/w at 0.3% v/v) at 75 and 150 g ai/ha and picoxystrobin (Acanto) was applied at 125 and 200 g ai/ha. The commercial standard used in the studies was Fluxapyroxad (Imtrex) and was applied at 100 g ai/ha.
Field Assessment of Puccinia recondita (PUCCRT) in Wheat:
Fungicidal treatment containing the compound of Formula I and picoxystrobin, either individually or as a two mixture, were assessed against brown rust of wheat (PUCCRT) in two separate field trials. In the first trial, fungicidal treatments were applied at B37-39 (protectant, approximately 0% infection at application) growth stage of wheat (TRZAW, MV Vanek variety) under natural infection of brown rust. The treatment was part of an experimental trial designed as a randomized complete block with four replications and a plot of approximately 2×3 m. Fungicidal treatments were applied at a water volume of 200 L/ha, using a backpack plot sprayer with a TEEJET QJ90-2XTT110 015 Nozzle.
In the second trial, fungicidal treatments containing the compound of Formula I and picoxystrobin, either individually or as a two way mixture, were applied at B33 (curative, approximately 6.6% infection at application) growth stage of wheat (TRZAW, Miradoux variety) under natural infection of brown rust. The treatments were part of an experimental trial designed as a randomized complete block with four replications and a plot of approximately 2×3 m. Fungicidal treatments were applied at a water volume of 200 L/ha, using a backpack plot sprayer with a HARDI MD110-02 Nozzle.
(§2) Disease severity (percentage of visual diseased foliage on whole plot or leaves) in both field trials was assessed at 5 weeks after application and was recorded following EPPO PP1/26 guideline prescriptions. Area under the disease progress curve (AUDPC) was calculated for each plot in both trials using the sets of recorded severity data. Relative AUDPC (% control based on AUDPC) was calculated as percent of the nontreated control. Final results for the control of brown rust of wheat by the compound of Formula I, picoxystrobin, and mixtures are reported as an average of the relative AUDPC calculated over both field trials. Statistical analysis was done according to ANOVA and Tukey's test (p=0.10).

[2] = test system: Rhynchosporium secalis (RHYNSE); experiment: Field assessment of scald of barley (RHYNSE), trials 2 and 3, relative AUDPC; settings: Trial 2, 3, based on AUDPC
Description: (§3) Field Assessment of Mixtures of the Compound of Formula I and Pyraclostrobin on Rhynchosporium secalis (RHYNSE) in Barley:
In the remaining trials, treatments consisting of the compound of Formula I and the fungicide pyraclostrobin were applied either using individually or as a two-way mixture with the compound of Formula I. […] Commercial standards used in these studies were SiltraXpro (200 g ai/L prothioconazole+60 g ai/ha bixafen) applied at 260 g ai/ha, and Opera (133 g/L pyraclostrobin+50 g/L epoxiconazole) applied at 220 g ai/ha. All treatments were part of an experimental trial designed as a randomized complete block with four replications.
(§4) Disease severity (percentage of visual diseased foliage on whole plot or leaves) in both trials was recorded following EPPO PP1/26 guideline prescriptions. Area under the disease progress curve (AUDPC) was calculated for each plot in both trials using the sets of recorded severity data. Relative AUDPC (% control based on AUDPC) was calculated as percent of the nontreated control. Final results for the control of scald of barley by the compound of Formula I, pyraclostrobin and mixtures are reported as an average of the relative AUDPC calculated over both field trials. Statistical analysis was done according to ANOVA and Tukey's test (p=0.10).

[3] = test system: Puccinia striiformis (PUCCST); experiment: Field assessment of yellow rust of wheat (PUCCST), relative AUDPC, 2 field trials; settings: based on AUDPC
Description: as §1
Field Assessment of Puccinia striiformis (PUCCST) in Wheat:
Fungicidal treatments containing the compound of Formula I and picoxystrobin, either individually or as a two way mixture, were assessed against yellow rust of wheat (PUCCST) in two separate field trials. […]
as §2, with “4-7” for “5”, “yellow” for “brown”, “Statistical analysis was done according to ANOVA and Tukey's test (p=0.10).” left out

Puccinia hordei (PUCCHD) = experiment: Field assessment of rust of barley (PUCCHD), relative AUDPC, 2 field trials; settings: based on AUDPC
Description: Treatments consisting of the compound of Formula I and the fungicide pyraclostrobin were applied either using individually or as a two-way mixture with the compound of Formula I. The compound of Formula I was applied with Agnique BP-420 (50% w/w at an active:adjuvant ratio of 1:2) at 75, 100 and 150 g ai/ha and with pyraclostrobin (Comet 200) at 100, 150 and 200 g ai/ha. Commercial standards used in these studies were Proline 275 (275 g ai/L Prothioconazole), applied at 150 g ai/ha, and SiltraXpro (200 g ai/L prothioconazole+60 g ai/ha bixafen), applied at 195 g ai/ha.
Field Assessment of Mixtures of the Compound of Formula I and Pyraclostrobin on Puccinia Hordie (PUCCHD) in Barley: […]
Fungicidal treatments containing the compound of Formula I and pyraclostrobin, either individually or as a two-way mixture, were assessed against rust of barley (PUCCHD) in two separate field trials. In both trials, fungicidal treatments were applied at B37-39 growth stages of winter barley (Lomeritt variety) under natural infection of barley rust. All treatments were part of an experimental trial designed as a randomized complete block with four replications.
as §4, with “in both field trials was” for “in both trials was”, “control of rust of barley” for “control of scald of barley”

[4] = test system: Rhynchosporium secalis (RHYNSE); experiment: Field assessment of scald of barley (RHYNSE), trial 1, relative AUDPC; settings: Trial 1, based on AUDPC
Protocol: (§5) Commercial standards used in these studies were Proline 275 (275 g ai/L Prothioconazole), applied at 150 g ai/ha, and SiltraXpro (200 g ai/L prothioconazole+60 g ai/ha bixafen), applied at 195 g ai/ha.
as §3
Fungicidal treatments containing the compound of Formula I and fluxapyroxad, either individually or as a two-way mixture, were assessed against scald of barley (RHYNSE) in three field trials. In the first trial, fungicidal treatments were applied at B37-39 growth stages of winter barley (HORVW, Maris Otter variety) under natural infection of barley scald (protectant test, approximately 1% infection on leaf 4 at application). All treatments were part of an experimental trial designed as a randomized complete block with four replications.
Disease severity (percentage of visual diseased foliage on whole plot or leaves) in the first trial was recorded following EPPO PP1/26 guideline prescriptions. Area under the disease progress curve (AUDPC) was calculated for each plot in the trial using the sets of recorded severity data. Relative AUDPC (% control based on AUDPC) was calculated as percent of the nontreated control. […] Statistical analysis was done according to ANOVA and Tukey's test (p=0.10).

[5] = test system: Pyrenophora teres (PYRNTE); experiment: Field assessment of net blotch of barley (PYRNTE), relative AUDPC; settings: based on AUDPC
Description: as §5
Field Assessment of Mixtures of the Compound of Formula I and Pyraclostrobin on Pyrenophora teres (PYRNTE) in Barley:
[…] […], fungicidal treatments were applied at B31-37 growth stages of winter barley and sprong barley (HORVW, Lomeritt variety; HORVS, Scarlett variety) under natural infection of net blotch (protectant tests, 1% infection on leaf 4 and 10% infection on leaf 6 at application). All treatments were part of an experimental trial designed as a randomized complete block with four replications.
[…] […] Relative AUDPC (% control based on AUDPC) was calculated as percent of the nontreated control. […] Statistical analysis was done according to ANOVA and Tukey's test (p=0.10).

## N#Cc1ccc(Oc2ccc(C(F)(F)C(O)(Cn3ncnc3S)c3ccc(F)cc3F)nc2)cc1 (stereo not drawn) [Compound I, 4-((6-(2-(2,4-difluorophenyl)-1,1-difluoro-2-hydroxy-3-(5-mercapto-1H-1,2,4-triazol-1-yl)propyl)pyridin-3-yl)oxy)benzonitrile]
[1]; 75 g ai/ha
  PUCCRT % Control: 90.7%
[1]; 150 g ai/ha
  PUCCRT % Control: 91.4%
[2]; 80 g ai/ha
  RHYNSE % Control: 15.6%
[2]; 125 g ai/ha
  RHYNSE % Control: 38.6%

## CO/C=C(/C(=O)OC)c1ccccc1COc1cccc(C(F)(F)F)n1 [Picoxystrobin, methyl (E)-3-methoxy-2-[2-(6-trifluoromethyl-2-pyridyloxymethyl)phenyl]acrylate]
[1]; 125 g ai/ha
  PUCCRT % Control: 64.6%
[1]; 200 g ai/ha
  PUCCRT % Control: 81.1%
[3]; 125 g ai/ha
  PUCCST % Control: 34.6%
[3]; 200 g ai/ha
  PUCCST % Control: 43.2%

## COC(=O)N(OC)c1ccccc1COc1ccn(-c2ccc(Cl)cc2)n1 [Pyraclostrobin, methyl N-[2-[[[1-(4-chlorophenyl)-1H-pyrazol-3-yl]oxy]methyl]phenyl]-N-methoxycarbamate]
Puccinia hordei (PUCCHD); 100 g ai/ha
  PUCCHD % Control: 63.3%
Puccinia hordei (PUCCHD); 150 g ai/ha
  PUCCHD % Control: 64.4%
Puccinia hordei (PUCCHD); 200 g ai/ha
  PUCCHD % Control: 78.7%
[4]; 100 g ai/ha
  RHYNSE % Control: 41.2%
[4]; 150 g ai/ha
  RHYNSE % Control: 45.0%
[4]; 200 g ai/ha
  RHYNSE % Control: 47.8%
[5]; 100 g ai/ha
  PYRNTE % Control: 46.5%
[5]; 150 g ai/ha
  PYRNTE % Control: 60.5%
[5]; 200 g ai/ha
  PYRNTE % Control: 69.8%
[2]; 200 g ai/ha
  RHYNSE % Control: 43.0%
